Reference: ChEMBL document CHEMBL1201862, “PubChem BioAssay data set” (2004)
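Method: 48-hour compound exposure of cells in 96-well plates, five concentrations, linear interpolation of endpoints. GI50 is the concentration that inhibits growth by half.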 The source made the active and inactive calls. Cut-off read from the data, not from the text of the source: active = GI50 up to about 1.1 µM and inactive = higher.

Key:
Assay in all cases: NCI tumour cell line growth inhibition, 48 h
786-0 = test system: 786-0
A498 = test system: A498
A549 = test system: A549
ACHN = test system: ACHN
BT-549 = test system: BT-549
CAKI-1 = test system: CAKI-1
CCRF-CEM = test system: CCRF-CEM
COLO 205 = test system: COLO 205
DU-145 = test system: DU-145
EKVX = test system: EKVX
HCC 2998 = test system: HCC 2998
HCT-116 = test system: HCT-116
HCT-15 = test system: HCT-15
HOP-62 = test system: HOP-62
HOP-92 = test system: HOP-92
HT-29 = test system: HT-29
Hs-578T = test system: Hs-578T
IGROV-1 = test system: IGROV-1
K562 = test system: K562
KM12 = test system: KM12
LOX IMVI = test system: LOX IMVI
M14 = test system: M14
MCF7 = test system: MCF7
MDA-MB-231 = test system: MDA-MB-231
MDA-MB-435 = test system: MDA-MB-435
MDA-N = test system: MDA-N
MOLT-4 = test system: MOLT-4
Malme-3M = test system: Malme-3M
NCI-H226 = test system: NCI-H226
NCI-H23 = test system: NCI-H23
NCI-H460 = test system: NCI-H460
NCI-H522 = test system: NCI-H522
NCI/ADR-RES = test system: NCI/ADR-RES
OVCAR-3 = test system: OVCAR-3
OVCAR-4 = test system: OVCAR-4
OVCAR-5 = test system: OVCAR-5
OVCAR-8 = test system: OVCAR-8
PC-3 = test system: PC-3
RPMI-8226 = test system: RPMI-8226
RXF 393 = test system: RXF 393
SF-268 = test system: SF-268
SF-295 = test system: SF-295
SF-539 = test system: SF-539
SK-MEL-28 = test system: SK-MEL-28
SK-MEL-2 = test system: SK-MEL-2
SK-MEL-5 = test system: SK-MEL-5
SK-OV-3 = test system: SK-OV-3
SN12C = test system: SN12C
SNB-19 = test system: SNB-19
SNB-75 = test system: SNB-75
SR = test system: SR
SW-620 = test system: SW-620
T47D = test system: T47D
TK-10 = test system: TK-10
U-251 = test system: U-251
UACC-257 = test system: UACC-257
UACC-62 = test system: UACC-62
UO-31 = test system: UO-31
HL-60 = test system: HL-60

Measured: GI50

Nc1cc2c(c3ccccc13)C(CCl)CN2C(=O)c1cc2cc(NC(=O)Nc3ccc4[nH]c(C(=O)N5CC(CCl)c6c5cc(N)c5ccccc65)cc4c3)ccc2[nH]1 (stereo not given)
1960 nM: HCT-15
active: 786-0 15.3 nM | A498 197 nM | A549 47.8 nM | ACHN < 10 nM | BT-549 776 nM | CAKI-1 < 10 nM | CCRF-CEM < 10 nM | COLO 205 687 nM | DU-145 < 10 nM | HCC 2998 259 nM | HCT-116 172 nM | HOP-62 56.8 nM | HT-29 < 17.6 nM | IGROV-1 256 nM | K562 367 nM | KM12 1080 nM | LOX IMVI 35.8 nM | M14 < 30.3 nM | MCF7 28.4 nM | MDA-MB-231 270 nM | MDA-MB-435 548 nM | MDA-N 292 nM | MOLT-4 < 10 nM | Malme-3M 412 nM | NCI-H226 275 nM | NCI-H23 23.9 nM | NCI-H460 < 10 nM | NCI-H522 50.9 nM | OVCAR-3 467 nM | OVCAR-5 612 nM | OVCAR-8 67.8 nM | PC-3 171 nM | RXF 393 71.9 nM | SF-268 51.4 nM | SF-295 40.4 nM | SF-539 19.4 nM | SK-MEL-28 659 nM | SK-MEL-2 995 nM | SK-MEL-5 141 nM | SK-OV-3 506 nM | SN12C 65.6 nM | SNB-19 78.5 nM | SNB-75 29.7 nM | SR < 10 nM | SW-620 75 nM | T47D < 37.7 nM | U-251 57.3 nM | UACC-62 63.4 nM | UO-31 55.9 nM
inactive: EKVX 1740 nM | HOP-92 2190 nM | Hs-578T 1350 nM | NCI/ADR-RES 1310 nM | OVCAR-4 1790 nM | RPMI-8226 1400 nM | TK-10 1420 nM | UACC-257 1160 nM

C(#CP(c1ccccc1)c1ccccc1)P(C#CP(c1ccccc1)c1ccccc1)c1ccccc1
inactive: 786-0 > 100000 nM | A498 > 100000 nM | A549 > 100000 nM | ACHN > 100000 nM | BT-549 > 100000 nM | CAKI-1 > 100000 nM | CCRF-CEM > 100000 nM | COLO 205 > 100000 nM | DU-145 > 100000 nM | EKVX > 100000 nM | HCC 2998 > 100000 nM | HCT-116 > 100000 nM | HL-60 > 100000 nM | HOP-62 > 100000 nM | HOP-92 > 100000 nM | HT-29 > 100000 nM | Hs-578T > 100000 nM | IGROV-1 > 100000 nM | K562 > 100000 nM | KM12 > 100000 nM | MCF7 > 100000 nM | MDA-MB-231 > 100000 nM | MDA-MB-435 > 100000 nM | MDA-N > 100000 nM | MOLT-4 > 100000 nM | Malme-3M > 100000 nM | NCI-H226 > 100000 nM | NCI-H460 > 100000 nM | NCI-H522 > 100000 nM | NCI/ADR-RES > 100000 nM | OVCAR-3 > 100000 nM | OVCAR-4 > 100000 nM | OVCAR-5 1630 nM | OVCAR-8 > 100000 nM | PC-3 > 100000 nM | RPMI-8226 > 100000 nM | RXF 393 > 100000 nM | SF-268 > 100000 nM | SF-295 5900 nM | SF-539 > 100000 nM | SK-MEL-28 > 100000 nM | SK-MEL-2 > 100000 nM | SK-MEL-5 > 100000 nM | SK-OV-3 2770 nM | SN12C > 100000 nM | SNB-19 > 100000 nM | SNB-75 > 100000 nM | SR > 100000 nM | SW-620 > 100000 nM | T47D > 100000 nM | TK-10 > 100000 nM | U-251 > 100000 nM | UACC-257 > 100000 nM | UACC-62 > 100000 nM | UO-31 > 100000 nM
> 100000 nM: HCT-15
active: M14 798 nM
